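Following 48 hours of exposure in 96-well plates, responses at five concentrations were used to interpolate endpoints linearly. TGI marks complete inhibition of growth.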
Key:
Assay in all cases: NCI tumour cell line growth inhibition, 48 h
OVCAR-4 ovarian = tested on: OVCAR-4 ovarian
PC-3 prostate = tested on: PC-3 prostate
NCI-H460 lung = tested on: NCI-H460 lung
NCI-H226 lung = tested on: NCI-H226 lung
SK-OV-3 ovarian = tested on: SK-OV-3 ovarian
HCT-116 colon = tested on: HCT-116 colon
DU-145 prostate = tested on: DU-145 prostate
COLO 205 colon = tested on: COLO 205 colon
786-0 renal = tested on: 786-0 renal
UACC-62 melanoma = tested on: UACC-62 melanoma
MALME-3M melanoma = tested on: MALME-3M melanoma
SN12C renal = tested on: SN12C renal
SF-268 CNS = tested on: SF-268 CNS
A498 renal = tested on: A498 renal
NCI/ADR-RES ovarian = tested on: NCI/ADR-RES ovarian
HOP-92 NSCLC = tested on: HOP-92 NSCLC
UO-31 renal = tested on: UO-31 renal
T-47D breast = tested on: T-47D breast
LOX IMVI melanoma = tested on: LOX IMVI melanoma
SF-295 CNS = tested on: SF-295 CNS
RXF 393 renal = tested on: RXF 393 renal
CAKI-1 renal = tested on: CAKI-1 renal
HOP-62 NSCLC = tested on: HOP-62 NSCLC
CCRF-CEM leukemia = tested on: CCRF-CEM leukemia
HCC-2998 colon = tested on: HCC-2998 colon
HS 578T breast = tested on: HS 578T breast
OVCAR-5 ovarian = tested on: OVCAR-5 ovarian
HCT-15 colon = tested on: HCT-15 colon
BT-549 breast = tested on: BT-549 breast
U251 CNS = tested on: U251 CNS
HL-60(TB) leukemia = tested on: HL-60(TB) leukemia
SK-MEL-28 melanoma = tested on: SK-MEL-28 melanoma
IGROV1 ovarian = tested on: IGROV1 ovarian
KM12 colon = tested on: KM12 colon
SW-620 colon = tested on: SW-620 colon
M14 melanoma = tested on: M14 melanoma
MDA-MB-231 breast = tested on: MDA-MB-231 breast
SK-MEL-5 melanoma = tested on: SK-MEL-5 melanoma
NCI-H23 lung = tested on: NCI-H23 lung
SR leukemia = tested on: SR leukemia
A549 NSCLC = tested on: A549 NSCLC
OVCAR-8 ovarian = tested on: OVCAR-8 ovarian
HT29 colon = tested on: HT29 colon
EKVX NSCLC = tested on: EKVX NSCLC
ACHN renal = tested on: ACHN renal
MCF7 breast = tested on: MCF7 breast
SK-MEL-2 melanoma = tested on: SK-MEL-2 melanoma
SNB-19 CNS = tested on: SNB-19 CNS
K-562 leukemia = tested on: K-562 leukemia
MOLT-4 leukemia = tested on: MOLT-4 leukemia
UACC-257 melanoma = tested on: UACC-257 melanoma
SNB-75 CNS = tested on: SNB-75 CNS
OVCAR-3 ovarian = tested on: OVCAR-3 ovarian
SF-539 CNS = tested on: SF-539 CNS
TK-10 renal = tested on: TK-10 renal
NCI-H522 lung = tested on: NCI-H522 lung
MDA-MB-435 = tested on: MDA-MB-435

Q: Which results are given for Cc1ccc2c(=O)cc(-c3cccc4ccccc34)[nH]c2n1?
A: TGI (OVCAR-4 ovarian): > 85.1 µM; TGI (PC-3 prostate): > 43 µM; TGI (NCI-H460 lung): > 100 µM; TGI (NCI-H226 lung): 35.2 µM; TGI (SK-OV-3 ovarian): 2.64 µM; TGI (HCT-116 colon): > 34.8 µM; TGI (DU-145 prostate): > 74.7 µM; TGI (COLO 205 colon): 0.676 µM; TGI (786-0 renal): > 79.2 µM; TGI (UACC-62 melanoma): > 100 µM; TGI (MALME-3M melanoma): 0.0495 µM; TGI (SN12C renal): > 100 µM; TGI (SF-268 CNS): > 32.4 µM; TGI (A498 renal): 0.0568 µM; TGI (NCI/ADR-RES ovarian): > 100 µM; TGI (HOP-92 NSCLC): 32 µM; TGI (UO-31 renal): > 55.4 µM; TGI (T-47D breast): > 100 µM; TGI (LOX IMVI melanoma): 9.5 µM; TGI (SF-295 CNS): > 100 µM; TGI (RXF 393 renal): > 100 µM; TGI (CAKI-1 renal): > 100 µM; TGI (HOP-62 NSCLC): > 100 µM; TGI (CCRF-CEM leukemia): > 100 µM; TGI (HCC-2998 colon): 0.177 µM; TGI (HS 578T breast): > 91.5 µM; TGI (OVCAR-5 ovarian): > 47.1 µM; TGI (HCT-15 colon): 1.73 µM; TGI (BT-549 breast): > 94.6 µM; TGI (U251 CNS): 1.64 µM; TGI (HL-60(TB) leukemia): 0.0318 µM; TGI (SK-MEL-28 melanoma): > 100 µM; TGI (IGROV1 ovarian): > 100 µM; TGI (KM12 colon): 1.98 µM; TGI (SW-620 colon): > 100 µM; TGI (M14 melanoma): > 100 µM; TGI (MDA-MB-231 breast): > 100 µM; TGI (SK-MEL-5 melanoma): 0.0897 µM; TGI (NCI-H23 lung): > 100 µM; TGI (SR leukemia): > 100 µM; TGI (A549 NSCLC): > 48.1 µM; TGI (OVCAR-8 ovarian): 0.305 µM; TGI (HT29 colon): 0.0658 µM; TGI (EKVX NSCLC): > 100 µM; TGI (ACHN renal): > 100 µM; TGI (MCF7 breast): > 43.1 µM; TGI (SK-MEL-2 melanoma): 2.47 µM; TGI (SNB-19 CNS): > 100 µM; TGI (K-562 leukemia): > 36.8 µM; TGI (MOLT-4 leukemia): > 100 µM; TGI (UACC-257 melanoma): > 100 µM

Q: Which TGI (OVCAR-4 ovarian) does the source give for Cc1cc2c(cc1Cl)SC(N/N=C(\N)c1ccc(Cl)cc1)=NS2(=O)=O here?
A: Its TGI is > 100 µM.

Q: What about the TGI (SNB-75 CNS) of the same compound?
A: Its TGI is > 100 µM.

Q: What about the TGI (PC-3 prostate) of the same compound?
A: The TGI was > 100 µM.

Q: What about the TGI (NCI-H460 lung) of the same compound?
A: Its TGI is > 100 µM.

Q: And the TGI (NCI-H226 lung)?
A: Its TGI is > 100 µM.

Q: What about the TGI (SK-OV-3 ovarian) of the same compound?
A: Its TGI is > 100 µM.

Q: And the TGI (HCT-116 colon)?
A: Its TGI is > 100 µM.

Q: And the TGI (DU-145 prostate)?
A: Its TGI is > 100 µM.

Q: What about the TGI (OVCAR-3 ovarian) of the same compound?
A: The TGI was > 100 µM.

Q: What about the TGI (COLO 205 colon) of the same compound?
A: The TGI was > 100 µM.

Q: And the TGI (786-0 renal)?
A: Its TGI is > 100 µM.

Q: What about the TGI (UACC-62 melanoma) of the same compound?
A: The TGI was > 100 µM.

Q: What about the TGI (MALME-3M melanoma) of the same compound?
A: The TGI was > 100 µM.

Q: What about the TGI (SN12C renal) of the same compound?
A: The TGI was > 100 µM.

Q: And the TGI (SF-268 CNS)?
A: The TGI was > 100 µM.

Q: What about the TGI (A498 renal) of the same compound?
A: The TGI was 72.9 µM.

Q: What about the TGI (NCI/ADR-RES ovarian) of the same compound?
A: Its TGI is > 100 µM.

Q: And the TGI (SF-539 CNS)?
A: The TGI was 84.2 µM.

Q: And the TGI (HOP-92 NSCLC)?
A: The TGI was 58.9 µM.

Q: And the TGI (UO-31 renal)?
A: The TGI was > 100 µM.

Q: What about the TGI (T-47D breast) of the same compound?
A: Its TGI is > 100 µM.

Q: What about the TGI (LOX IMVI melanoma) of the same compound?
A: Its TGI is > 100 µM.

Q: And the TGI (SF-295 CNS)?
A: Its TGI is > 100 µM.

Q: What about the TGI (RXF 393 renal) of the same compound?
A: Its TGI is > 100 µM.

Q: What about the TGI (CAKI-1 renal) of the same compound?
A: The TGI was > 100 µM.

Q: And the TGI (HOP-62 NSCLC)?
A: Its TGI is > 100 µM.

Q: And the TGI (CCRF-CEM leukemia)?
A: Its TGI is > 100 µM.

Q: What about the TGI (HCC-2998 colon) of the same compound?
A: Its TGI is > 100 µM.

Q: And the TGI (HS 578T breast)?
A: The TGI was > 100 µM.

Q: What about the TGI (OVCAR-5 ovarian) of the same compound?
A: The TGI was > 100 µM.

Q: And the TGI (HCT-15 colon)?
A: Its TGI is > 100 µM.

Q: What about the TGI (BT-549 breast) of the same compound?
A: Its TGI is > 100 µM.

Q: And the TGI (U251 CNS)?
A: Its TGI is > 100 µM.

Q: And the TGI (TK-10 renal)?
A: The TGI was > 100 µM.

Q: And the TGI (HL-60(TB) leukemia)?
A: The TGI was > 100 µM.

Q: What about the TGI (SK-MEL-28 melanoma) of the same compound?
A: Its TGI is > 100 µM.

Q: What about the TGI (IGROV1 ovarian) of the same compound?
A: Its TGI is > 100 µM.

Q: And the TGI (KM12 colon)?
A: The TGI was > 100 µM.

Q: What about the TGI (SW-620 colon) of the same compound?
A: Its TGI is > 100 µM.

Q: What about the TGI (NCI-H522 lung) of the same compound?
A: The TGI was > 100 µM.

Q: And the TGI (M14 melanoma)?
A: The TGI was > 100 µM.

Q: And the TGI (MDA-MB-231 breast)?
A: The TGI was > 100 µM.

Q: What about the TGI (SK-MEL-5 melanoma) of the same compound?
A: The TGI was > 100 µM.

Q: What about the TGI (NCI-H23 lung) of the same compound?
A: The TGI was > 100 µM.

Q: What about the TGI (A549 NSCLC) of the same compound?
A: Its TGI is > 100 µM.

Q: And the TGI (OVCAR-8 ovarian)?
A: Its TGI is > 100 µM.

Q: What about the TGI (HT29 colon) of the same compound?
A: Its TGI is > 100 µM.

Q: And the TGI (MDA-MB-435)?
A: Its TGI is > 100 µM.

Q: And the TGI (EKVX NSCLC)?
A: Its TGI is > 100 µM.

Q: And the TGI (ACHN renal)?
A: The TGI was > 100 µM.

Q: And the TGI (MCF7 breast)?
A: The TGI was 64.7 µM.

Q: And the TGI (SNB-19 CNS)?
A: Its TGI is > 100 µM.

Q: And the TGI (K-562 leukemia)?
A: The TGI was > 100 µM.

Q: What about the TGI (MOLT-4 leukemia) of the same compound?
A: The TGI was > 100 µM.

Q: And the TGI (UACC-257 melanoma)?
A: The TGI was > 100 µM.
